Results on one molecule are retold here after patent US20010036949A1, “Pharmaceutical composition and method of treatment of diseases of cognitive dysfunction in a mammal” (priority 2000, published 2001).

Assay [1] addresses T1, human m4 receptor (Homo sapiens, UniProt P08173).
T1 construct: host or cells: CHO-K1
T1 sequence (P08173 1-479): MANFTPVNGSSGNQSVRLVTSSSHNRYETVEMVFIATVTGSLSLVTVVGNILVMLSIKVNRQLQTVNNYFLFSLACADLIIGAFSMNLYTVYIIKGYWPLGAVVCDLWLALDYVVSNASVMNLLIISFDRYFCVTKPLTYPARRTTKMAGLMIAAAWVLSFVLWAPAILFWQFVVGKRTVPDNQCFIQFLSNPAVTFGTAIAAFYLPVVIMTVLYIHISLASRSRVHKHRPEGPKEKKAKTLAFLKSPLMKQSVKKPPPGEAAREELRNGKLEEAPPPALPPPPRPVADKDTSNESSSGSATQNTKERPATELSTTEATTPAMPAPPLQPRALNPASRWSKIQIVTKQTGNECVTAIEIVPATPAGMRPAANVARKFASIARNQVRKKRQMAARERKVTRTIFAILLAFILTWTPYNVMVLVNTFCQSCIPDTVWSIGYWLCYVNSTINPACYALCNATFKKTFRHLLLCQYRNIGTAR
Nature of the assay: Inhibition of forskolin-stimulated cAMP accumulation, m4 receptor. Type of assay: cell-based. The following applies: standard agonist, typical value, 5 uM forskolin. On the procedure: (§1) The activity of muscarinic receptors can be determined according to the following protocol. Chinese hamster ovary cells (CHO-K1) stably transformed to express human m1-m5_receptors can be obtained from Dr. Tom Bonner (Laboratory of Cell Biology, National Institute of Mental Health, Building 36, Rm 3A-17, National Institute of Health, Bethesda, Md. 20892). Cells are maintained in Dulbecco's Modified Eagle Medium containing 10% fetal calf serum and harvested at confluence by brief incubation in Ca++/Mg++_free phosphate-buffered saline containing 4 mM EDTA.
(§2) Functional responses at m2 and m4 receptors can be determined by measuring inhibition of forskolin-stimulated cAMP accumulation. Harvested cells are preincubated (15 minutes at 20-22° C.) with 3-isobutyl-1-methyl-xanthine ([…]; 0.2 mM) and then incubated (10 minutes at 20-22° C.) in a HEPES-buffered Krebs solution with test compounds in the presence of 5 uM forskolin. The reaction is stopped by the addition of 10N acetic acid and the CAMP content of dried supernatants is determined using a scintillation proximity assay (Amersham).
On the technique in general: Changes in cAMP serve as a functional read-out for many G protein-coupled receptors.

In assay [2] the target is T2, human m2 receptor (Homo sapiens, UniProt P08172).
T2 sequence (P08172 1-466): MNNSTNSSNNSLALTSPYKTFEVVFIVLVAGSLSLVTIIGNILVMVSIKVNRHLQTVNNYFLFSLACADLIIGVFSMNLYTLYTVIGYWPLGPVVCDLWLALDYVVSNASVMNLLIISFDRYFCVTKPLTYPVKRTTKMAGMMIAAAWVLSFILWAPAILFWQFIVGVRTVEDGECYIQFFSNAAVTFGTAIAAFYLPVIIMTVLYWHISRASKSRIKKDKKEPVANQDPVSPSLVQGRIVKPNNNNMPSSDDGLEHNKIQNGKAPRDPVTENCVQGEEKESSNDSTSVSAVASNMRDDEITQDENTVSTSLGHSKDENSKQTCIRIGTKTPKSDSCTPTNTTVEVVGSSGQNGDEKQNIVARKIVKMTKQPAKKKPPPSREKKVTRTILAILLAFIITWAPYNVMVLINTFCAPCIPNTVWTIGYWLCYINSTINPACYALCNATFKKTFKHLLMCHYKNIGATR
Description: Inhibition of forskolin-stimulated cAMP accumulation, m2 receptor. Type of assay: cell-based. As to conditions: standard agonist, typical value, 5 uM forskolin. On the procedure: as §1, §2

SMILES strings stand for the structures.

`C[N+](C)(C)CCOC(N)=O` [Carbachol]: the “inhibition of the forskolin-stimulated cAMP levels” value in assay [1] and in assay [2] was 60-80% each time.
